Data as given in US10689622B2, “Culture medium for proliferating stem cell, which contains sulfated compound” (AJINOMOTO CO., INC., priority 2012, dated 2020).

What was measured:
[1] = system: Human bone marrow-derived mesenchymal stem cells; experiment: Mesenchymal stem cell proliferation system (cell number by DNA quantification); details: growth of mesenchymal stem cell, control ratio
Experimental: Human bone marrow-derived mesenchymal stem cells (Lonza, Human Mesenchymal Stem Cell) cultured in mesenchymal stem cell-dedicated medium (Lonza, MSCGM) or Dulbecco's Modified Eagle Medium (Invitrogen, GIBCO D-MEM) containing inactivated fetal bovine serum (Invitrogen, GIBCO FBS) and penicillin-streptomycin (Sigma-Aldrich Co. LLC.) were cultured in exchanged Lonza serum-free medium. The mesenchymal stem cells thus-acclimated to serum-free culture were suspended in Lonza serum-free medium, and seeded on a 24 well culture plate (Nippon Becton Dickinson Company, Ltd., Falcon culture plate) at 20,000 cells/well or a 6 well culture plate (Nippon Becton Dickinson Company, Ltd., Falcon culture plate) at 50,000 cells/well. Then, a test compound solution after filter sterilization and adjustment to a given concentration was added, and the cells were cultured in an incubator (Thermo Scientific, Forma incubator) under the 5% CO2/37° C. conditions for 7 to 8 days. When the medium exchange was necessary, the medium was exchanged 2 to 3 days after the seeding. In this case, the test compound solution was also added again in the same manner as in seeding. In this case, various compound solutions were added again in the same manner as in seeding. After culturing for 7 to 8 days, the medium was removed and DNA quantification was performed. As a control, the cells were cultured in the same manner in a medium without a test compound and added with phosphate buffered saline.
The medium in the 24 well culture plate was removed, and the cells were washed with phosphate buffered saline. The sodium lauryl sulfate solution (500 μl/well) was added, and the mixture was left standing at 37° C. for 4 hours. The sodium lauryl sulfate solution (1.0 ml) was also added to a cell pellet with a known cell number, and the mixture was left standing at 37° C. for 4 hours. As for the cells in the 24 well culture plate, a part (50 μl) of the lysate was transferred to a 96 well black microplate. The solution used for treating the cell pellets was successively diluted with sodium lauryl sulfate solution and used as solutions for drawing an analytical curve. Also, a part (50 μl) of the solutions for drawing an analytical curve was each transferred to the 96 well black microplate. […] The fluorescence was measured by a microplate reader (excitation wavelength: 355 nm, measurement wavelength: 460 nm) within 5 minutes from the addition. The cell number of the 24 well cell culture plate was calculated from the analytical curve drawn (conversion formula). The evaluation criteria were as follows.

[2] = biological target: T1, bFGF (Homo sapiens, UniProt P09038); experiment: Evaluation of bFGF stabilization in Essential 8 medium (ELISA); assay type: biochemical; details: 37° C. for 7 days
T1 construct: purchased Lonza (via TAKARA BIO INC.) Ser. No. 00/190,632
How it was run: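 Test compound in PBS diluted 10-fold into serum-free medium (Essential 8 or ReproFF2), held sealed at 37° C for 7 days; remaining bFGF quantified by ELISA against a standard curve. Controls: PBS without compound diluted into each medium, held 7 days at 37° C or 4° C.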

[3] = biological target: T1, bFGF; experiment: Evaluation of bFGF stabilization in Lonza serum-free medium (ELISA); assay type: biochemical; details: for bFGF concentration relative to that of 4° C. control (ELISA): Lonza serum-free medium, 37° C. for 7 days
How it was run: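 Compound in PBS diluted 10-fold into serum-free medium and held sealed at 37 °C for 7 days (some sets 3 days). Remaining bFGF quantified by human bFGF sandwich ELISA against a standard curve. Controls were compound-free PBS-medium kept at 37 °C or 4 °C for the same period.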

[4] = Measurement of content level of sulfur in test compound (ICP); assay type: physicochemical; details: ICPS-8100, evaluation samples containing 0.01 wt % test compound
How it was run: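 Sulfur content was measured by ICP emission spectrometry on samples containing 0.01 wt % test compound. Values came from a calibration curve of sulfur standards at 0, 1, 10, 30 and 50 ppm.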

[5] = system: iPS cell 201B7 strain; experiment: iPS cell proliferation system (cell number); assay type: cell-based, human; details: matrigel, Essential-8 medium
Experimental: The cell proliferation effect of various test compounds was evaluated using artificial pluripotent stem cell (iPS cell). 201B7 strain purchased from iPS Academia Japan, Inc. was grown in a culture container coated with a basal lamina matrix (matrigel manufactured by Nippon Becton Dickinson Company, Ltd., or a fragment containing an active domain of laminin 511 purchased from OSAKA UNIVERSITY) (Becton, Dickinson and Company, Falcon culture petri dish or Falcon culture plate), contained in a feeder-free medium for human ES/iPS cell (ReproCELL Inc, ReproFF2).
In this medium were suspended iPS cells in colony state, and a 2.5- to 3.5-fold diluted amount of the original culture was plated on a 6-well culture plate coated with a basal lamina matrix (Nippon Becton Dickinson Company, Ltd., Falcon culture plate). […] After culturing for 6 to 12 days, the medium was removed, the cells were detached from the culture plate by a trypsin-EDTA (Sigma-Aldrich Ltd.) or TrypLE Select (Invitrogen) treatment and the cell number was measured. The cell number was measured by the method described in “Kaitei Saibou baiyou Nyuumon Note, page 77-83, 2010, YODOSHA CO., LTD.” which is incorporated herein by reference in its entirety.
When the cells were seeded in a dissociation state of the cells (single cell state), a test compound solution after filter sterilization was added to a medium containing Y-27632 (Nacalai Tesque) to a given concentration, and dispensed to a 6 well culture plate. Thereto were plated iPS cells suspended in a medium containing Y-27632 at 100,000 cells/well, and cultured for 6 to 8 days. On the next day of seeding, the medium was exchanged to a medium (without Y-27632) added with the test compound alone. When medium exchange was necessary, the medium was exchanged every 2 or 3 days. […] After culturing for 6 to 8 days, the cell number was measured by a method similar to that mentioned above.
When the evaluation was performed in Essential 8 medium (Invitrogen), which is a different feeder-free medium for iPS cell, iPS cells cultured in a medium obtained by adding human serum albumin (Sigma-Aldrich Co. LLC) to Essential 8 medium were used.

T1 sequence (P09038 143-288): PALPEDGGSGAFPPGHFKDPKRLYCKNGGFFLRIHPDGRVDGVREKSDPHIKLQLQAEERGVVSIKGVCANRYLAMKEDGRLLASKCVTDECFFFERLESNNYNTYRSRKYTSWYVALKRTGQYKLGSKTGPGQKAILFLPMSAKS

concentration showing a suppressive effect on a decrease in the bFGF concentration of the medium [2]: not less than 250 ng/ml | effectiveness ELISA ([3]; effectiveness in ELISA evaluation of mesenchymal stem cells (medium), 4° C. control ratio): +++ (+++ 70%<) | sulfur content Found (inorganic analysis) [4]: 13 wt %
Substance: maltotriose SO3Na
effectiveness cells [1]: ⊚ (⊚ not less than 120%) | bFGF concentration relative to that of 4° C. control (ELISA) ([2]; test compound 250 pg/ml): x (bFGF concentration was less than 10% relative to that of 4 °C control) | bFGF concentration relative to that of 4° C. control (ELISA) ([2]; test compound 25 ng/ml): x (bFGF concentration was less than 10% relative to that of 4 °C control) | bFGF concentration relative to that of 4° C. control (ELISA) ([2]; test compound 250 ng/ml): − (bFGF concentration was not less than 10% and less than 30% relative to that of 4 °C control) | bFGF concentration relative to that of 4° C. control (ELISA) ([2]; test compound 25 μg/ml): +++ (bFGF concentration was not less than 70% relative to that of 4 °C control) | bFGF concentration relative to that of 4° C. control (ELISA) ([2]; test compound 250 μg/ml): +++ (bFGF concentration was not less than 70% relative to that of 4 °C control) | bFGF concentration relative to that of 4° C. control (ELISA) ([3]; test compound 25 ng/ml): x (bFGF concentration was less than 10% relative to that of 4 °C control) | bFGF concentration relative to that of 4° C. control (ELISA) ([3]; test compound 250 ng/ml): x (bFGF concentration was less than 10% relative to that of 4 °C control) | bFGF concentration relative to that of 4° C. control (ELISA) ([3]; test compound 25 μg/ml): + (bFGF concentration was not less than 30% and less than 50% relative to that of 4 °C control) | bFGF concentration relative to that of 4° C. control (ELISA) ([3]; test compound 250 μg/ml): +++ (bFGF concentration was not less than 70% relative to that of 4 °C control) | number of cells relative to control ([5]; test compound 25 ng/ml): ◯ (not less than 100%: ◯) | number of cells relative to control ([5]; test compound 250 ng/ml): ◯ (not less than 100%: ◯)
